The text below walks through data of patent US20240043435A1, “TYK-2 INHIBITOR” (BEIGENE, LTD., priority 2020, published 2024).

Like-named read-outs stand apart in the source and are kept apart here. Some results are limits rather than exact numbers.

In data set [1] the test system is pSTAT5/GM-CSF. The data set can be described thus: pSTAT5/GM-CSF cellular assay (JAK2 selectivity). The data set is classed as cell-based.
Data set [2] has as its system JAK2, TYK2/p-STAT4 (Tyr693) activated by IL-12 in NK-92 cell line. As to the kind of experiment: IL-12-JAK2, TYK2/p-STAT4 (Tyr693) inhibition IC50 cellular assay. The data set is classed as cell-based. The settings on record: for Selectivity fold (TYK2/JAK2): Cellular assay, pSTAT5/GM-CSF IC50 vs pSTAT4/IL-12 IC50; for IC50: NK92, Cellular assay, read-out: pSTAT4/IL-12 IC50. In short, it runs like this:
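NK-92 cells were starved overnight without IL-2 and preincubated 1 h at 37° C with compound (8 doses, 10000–0.61 nM, 4-fold, 0.2% DMSO). They were then stimulated with IL-12 (40 ng/ml final) for 30 min. Lysate p-STAT4 (Tyr693) was read by AlphaLISA SureFire; IC50 from four-parameter logistic fit.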

A short description of data set [3]: Mouse PK study, oral administration. It is filed as in vivo, male CD-1 mouse. As for the experimental part: Biological Assay: Mouse PK Study
The pharmacokinetics of compounds were evaluated in male CD-1 mouse via Oral Administration (dose of 10 mg/kg). For oral administration study, test compounds were added in 0.5% MC in water and administrated to mice at 10 mg/kg by gavage. Blood was collected into EDTA-K2 anticoagulant tube at 15, and 30 min and 1, 2, 4, 8 and 24 h after administration. Approximately 30 μL blood was collected at each time point. And then the blood was centrifuged at 2000 g for 5 min at 4° C. using a centrifuge to obtain the plasma. The plasma sample was transferred into a tube and stored in a freezer at approximately −70° C. until the determination of concentration by LC-MS/MS. Pharmacokinetic parameters were estimated by using WinNonlin software (version 8.1, Pharsight Corporation, CA, USA) with non-compartmental method. The following pharmacokinetic parameters were calculated, whenever possible from the plasma concentration-time data: Tmax, Cmax, AUClast, AUCinf, T1/2 for PO administration. All animals were fasted before experiment.

Data set [4] deals with T1, TYK2-JH2 (aa 575-869, in-house) protein (Homo sapiens, UniProt P29597).
T1 construct: TYK2-JH2 (aa 575-869, in-house) protein; made in house
T1 sequence (P29597 575-869): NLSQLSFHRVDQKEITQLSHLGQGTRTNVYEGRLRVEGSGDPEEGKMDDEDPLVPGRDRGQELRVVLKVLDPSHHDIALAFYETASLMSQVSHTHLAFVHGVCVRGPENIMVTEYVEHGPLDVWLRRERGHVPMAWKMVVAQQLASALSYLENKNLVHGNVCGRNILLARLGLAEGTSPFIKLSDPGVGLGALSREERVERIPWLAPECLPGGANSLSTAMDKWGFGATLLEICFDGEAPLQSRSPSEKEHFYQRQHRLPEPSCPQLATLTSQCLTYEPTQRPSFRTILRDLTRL
The data set can be described thus: TYK2-JH2 biochemical assay (HTRF probe displacement). It is filed as binding. The settings on record: for Selectivity fold (TYK2/JAK1): JAK1-JH2 IC50 vs TYK2-JH2 IC50. In short, it runs like this:
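Recombinant TYK2-JH2 (0.2 nM) was pre-incubated 0.5 h at room temperature with compounds (10 doses, 5-fold dilution; 500× DMSO stocks from 500 uM) in 20 mM HEPES pH 7.5, 10 mM MgCl2, 0.005% BSA, 2 mM DTT, 0.015% Brij-35. Probe displacement was read by HTRF (ex337, em620/665 nm); IC50 from four-parameter logistic fit.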
(Time-resolved FRET reads energy transfer from a long-lived donor to a nearby acceptor.)

For data set [5], the target named is T2, JAK1-JH2 protein (aa 561-860, in-house) (Homo sapiens, UniProt P23458).
T2 construct: JAK1-JH2 protein (aa 561-860, in-house); made in house
T2 sequence (P23458 561-860): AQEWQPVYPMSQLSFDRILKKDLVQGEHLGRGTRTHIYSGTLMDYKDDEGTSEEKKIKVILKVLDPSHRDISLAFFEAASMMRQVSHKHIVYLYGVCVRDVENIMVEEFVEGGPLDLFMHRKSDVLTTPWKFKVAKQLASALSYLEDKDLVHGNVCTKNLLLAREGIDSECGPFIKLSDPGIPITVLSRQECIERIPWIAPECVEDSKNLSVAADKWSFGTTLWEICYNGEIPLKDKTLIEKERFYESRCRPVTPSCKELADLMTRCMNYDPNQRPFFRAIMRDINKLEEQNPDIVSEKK
The data set can be described thus: JAK1-JH2 biochemical assay (HTRF probe displacement). It is filed as binding. As for the experimental part: Assay B: JAK1-JH2 Biochemical Assay
Compounds disclosed herein were tested for blocking of JAK1-JH2 protein (aa 561-860, in-house) with its probe in an assay based on Homogeneous Time Resolved Fluorescence. Compound dilution is done according to the following protocol: (1) Prepare 500× compounds solution in DMSO from 500 uM by 5-fold dilution, total 10 doses were included; (2) Prepare 10× compounds solution in an assay buffer containing 20 mM HEPES, pH 7.5, 10 mM MgCl2, 0.005% BSA, 2 mM DTT, 0.015% Brij-35 by transferring 1 μl serial 500× stock solution into 49 μl assay buffer. 4 μL of 1.17 nM recombinant JAK1-JH2 protein was pre-incubated with 1 μl of 10× serial dilution of compounds at room temperature for 0.5 hour. […] The HTRF signals (ex337 nm, em620 nm/665 nm) were read on BMG PHERAstar FS instrument. The inhibition percentage of JAK1 interaction with its probe in presence of increasing concentrations of compounds was calculated based on the ratio of fluorescence at 615 nm to that at 665 nm. The IC50 for each compound was derived from fitting the data to the four-parameter logistic equation by Dotmatics.

For data set [6], the target named is T2, JAK1-JH2 protein (aa 561-860, in-house). Described as above. The data set is classed as binding. The settings on record: in-house probe of the JAK1-JH2 assay.
[7] abbreviates: Po dosing (10 mg/kg), male CD-1 mouse.
[8] abbreviates: male, CD-1, plasma, Po 10 mg/kg mouse.
[9] abbreviates: Biochemical assay, read-out: TYK2-JH2 IC50.
Where [10] appears, read: plasma, Po dosing (10 mg/kg), male CD-1 mouse, read-out: Cmax.
Where [11] appears, read: read-out: Tyk2 JH2 domain bio-chemical potency.

`COc1cc(Nc2cc(NC(C)=O)ncc2-c2ccc(C(C)(C)O)cn2)nc(S(C)(=O)=O)c1` [Example H11, N-(5-(2-hydroxypropan-2-yl)-4′-((4-methoxy-6-(methylsulfonyl)pyridin-2-yl)amino)-[2,3′-bipyridin]-6′-yl)acetamide]: the IC50 in data set [1] is more than 10000 nM; in data set [2], 1 nM; in data set [4] (setting [9]) it was 0.027 nM. Besides, the “Selectivity fold (TYK2/JAK2)” value in data set [2] was more than 10000 fold. For the same compound, the AUClast in data set [3] (setting [7]) turned out to be 19.3 ng·h/mL. The highest concentration (Cmax) in data set [3] (setting [7]) amounted to 8.73 ng/mL; in data set [3] (male, CD-1, plasma, Po 10 mg/kg mouse, read-out: Cmax), 7 ng/mL. Further, in data set [3] (setting [7]), the T1/2 was found to be 2.07 h. In addition, the AUC in data set [3] (setting [8]) turned out to be 19.4 ng·h/mL.
For the compound `COc1cc(Nc2cc(NC(C)=O)ncc2-c2ccc3c(n2)OCC(C)(C)O3)nc(S(C)(=O)=O)c1` [Example Q25, N-(5-(2,2-dimethyl-2,3-dihydro-[1,4]dioxino[2,3-b]pyridin-6-yl)-4-((4-methoxy-6-(methylsulfonyl)pyridin-2-yl)amino)pyridin-2-yl)acetamide], the results for the IC50 in data set [1], in data set [2] and in data set [4] (setting [9]) were 1820 nM, 0.53 nM and 0.026 nM, respectively. Besides, the “Selectivity fold (TYK2/JAK2)” value in data set [1] (pSTAT5/GM-CSF IC50 over pSTAT4/IL-12 IC50) came out at 3437 fold. Further, in data set [3] (Po 10 mg/kg mouse), the “AUC and Cmax fold higher than those of Example F22 and H11” value was “at least 3 fold”. This compound displayed an AUClast in data set [3] (setting [7]) of 16245 ng·h/mL. In data set [3] (setting [7]), the T1/2 came out at 3.01 h. The AUC in data set [3] (setting [8]) is 16200 ng·h/mL. In addition, the highest concentration (Cmax) in data set [3] (setting [10]) stood at 2820 ng/mL.
Take `CC(=O)Nc1cc(Nc2cccc(S(C)(=O)=O)c2)c(-c2cccnn2)cn1` [Example A1, N-(4-((3-(methylsulfonyl)phenyl)amino)-5-(pyridazin-3-yl)pyridin-2-yl)acetamide]: the IC50 in data set [1] is more than 10000 nM; in data set [2] it was 79.5 nM; in data set [5], 15 nM; in data set [4] (setting [9]), 0.052 nM. Besides, in data set [2], the “Selectivity fold (TYK2/JAK2)” value is given as more than 125 fold. Also, the “Selectivity fold (TYK2/JAK1)” value in data set [4] (Biochemical assay) was 288 fold.
Consider `CC(=O)Nc1cc(Nc2cccc(S(C)(=O)=O)c2)c(-c2ccccn2)cn1` [Example B1, N-(4′-((3-(methylsulfonyl)phenyl)amino)-[2,3′-bipyridin]-6′-yl)acetamide], for which the IC50 was more than 10000 nM in data set [1], 9.89 nM in data set [2], 7.4 nM in data set [5] and 0.038 nM in data set [4] (setting [11]). Besides, in data set [2], the “Selectivity fold (TYK2/JAK2)” value is reported as more than 1011 fold. The “Selectivity fold (TYK2/JAK1)” value in data set [4] (Biochemical assay) is recorded as 194 fold.
`CN(C(=O)CN1CCN(CCNC(=O)CCOCCOCCOCCOCCOCCOCCNC(=O)CCCC[C@@H]2SC[C@@H]3NC(=O)N[C@@H]32)CC1)c1ccc(N/C(=C2\C(=O)Nc3ccccc32)c2ccccc2)cc1` [Probe 2, N-(2-(4-(2-(methyl(4-((((Z)-2-oxoindolin-3-ylidene)(phenyl)methyl)amino)phenyl)amino)-2-oxoethyl)piperazin-1-yl)ethyl)-1-(5-((3aS,4S,6aR)-2-oxohexahydro-1H-thieno[3,4-d]imidazol-4-yl)pentanamido)-3,6,9,12,15,18-hexaoxahenicosan-21-amide] yielded a Kd in data set [6] of 2.9 nM.
For `COc1cccc(Nc2cc(NC(C)=O)ncc2-c2ccccn2)c1` [Example B13, N-(4′-((3-methoxyphenyl)amino)-[2,3′-bipyridin]-6′-yl)acetamide], the IC50 in data set [1] is more than 10000 nM; in data set [2], 183 nM; in data set [5], 18 nM; in data set [4] (setting [9]) it was 0.43 nM. In addition, the “Selectivity fold (TYK2/JAK2)” value in data set [2] is recorded as more than 54 fold. Further, the “Selectivity fold (TYK2/JAK1)” value in data set [4] (Biochemical assay) worked out at 42 fold.
With `CC(=O)Nc1cc(Nc2cccc(S(C)(=O)=O)n2)c(-c2ccccn2)cn1` [Example B5, N-(4′-((6-(methylsulfonyl)pyridin-2-yl)amino)-[2,3′-bipyridin]-6′-yl)acetamide], the IC50 was more than 10000 nM in data set [1], 0.243 nM in data set [2], 0.31 nM in data set [5] and 0.016 nM in data set [4] (setting [11]). Moreover, the “fold more potent than Example B1 in cellular assay” value in data set [2] is 40 fold. In data set [2], the “Selectivity fold (TYK2/JAK2)” value is more than 41152 fold. In data set [4], the “fold more potent than Example B1 in bio-chemical assay” value is listed as 2 fold. Further, the “Selectivity fold (TYK2/JAK1)” value in data set [4] (Biochemical assay) was 19 fold.
Take `CC(=O)Nc1cc(Nc2cccc(S(C)(=O)=O)c2)c(-c2ccc(C(C)(C)O)cn2)cn1` [Example H1, N-(5-(2-hydroxypropan-2-yl)-4′-((3-(methylsulfonyl)phenyl)amino)-[2,3′-bipyridin]-6′-yl)acetamide]: the IC50 is more than 10000 nM in data set [1], 2.6 nM in data set [2], 1.4 nM in data set [5] and 0.016 nM in data set [4] (setting [9]). Also, the “Selectivity fold (TYK2/JAK2)” value in data set [2] is more than 3846 fold. Besides, the “Selectivity fold (TYK2/JAK1)” value in data set [4] (Biochemical assay) was determined as 87.5 fold.
In turn, `COc1cc(Nc2cc(NC(C)=O)ncc2-c2ccc(F)cn2)nc(S(C)(=O)=O)c1` [Example F22, N-(5-fluoro-4′-((4-methoxy-6-(methylsulfonyl)pyridin-2-yl)amino)-[2,3′-bipyridin]-6′-yl)acetamide] registered an IC50 in data set [1] of more than 10000 nM. Also, in data set [2], the “Selectivity fold (TYK2/JAK2)” value is more than 5494 fold and the IC50 worked out at 1.82 nM. In data set [3] (setting [7]), this compound displayed an AUClast of 2098 ng·h/mL and a T1/2 of 1.48 h. Besides, the AUC in data set [3] (setting [8]) was 2100 ng·h/mL. Further, the maximum concentration (Cmax) in data set [3] (setting [10]) came to 911 ng/mL. Further, the IC50 in data set [4] (setting [9]) turned out to be 0.026 nM.

In general, Cmax refers to the maximum level reached in the sampled fluid or tissue. A word on the AUC: it is the area under the concentration-time curve, a measure of exposure. One may read the Kd as the concentration at which binding is half-saturated. High values mean lower affinity, low ones higher affinity.
